Experiment [1] has as its system HeLa cells. Nature of the experiment: Histone H3 (Ser10) phosphorylation ELISA, abrogation of camptothecin-induced G2 arrest (CHK-1 cellular assay). In kind it is cell-based. Particulars: HeLa cells, camptothecin 8 hrs, then compound with nocodozole 16 hours, read-out: EC50. The method, then: The Histone H3 phosphorylation ELISA assay detects cells entering mitosis and represents the primary in vitro cell-based assay used to measure the cellular potency of compounds in abrogating the G2 check point induced by DNA damage in HeLa cells or MiaPaCa cells. The candidate substances were assayed for potency in their ability to inhibit camptothecin-induced G2 arrest, as measured by an increase in Histone H3 phosphorylation on Ser10, a marker of entry into mitosis.
Tissue culture plates were seeded with HeLa cells or MiaPaCa Cells and allowed to attach overnight. The cells were then treated with camptothecin to induce DNA damage for 8 hrs. Candidate substances or diluent were then added in the presence of nocodozole for 16 hours. […] The fresh whole cell lysates were then thawed and added to the ELISA plate with shaking for 3 hours. Between all subsequent steps plates were washed 4 times with PBST. Biotinylated phospho Histone H3 (ser10) detection antibody was added for 1 hour, followed by addition of horseradish peroxidase-linked streptavidin secondary antibody for 1 hour. Color development of the antibody was performed with addition of TMB substrate and incubation for 2 minutes on a plate shaker. […] EC50 values were calculated by sigmoid curve fitting using a four-parameter analysis.
(§1) Under the “Ki” column, data entries in the format of “%” are percent inhibition data where no Ki data is available. Data entry under the “EC50” column with an * are data obtained using Mia Paca-2 cells rather than HeLa cells. Data is not available where noted as n/a.
On the technique in general: ELISA stands for enzyme-linked immunosorbent assay.

In experiment [2] the target is T1, CHK1 (kinase domain) (Homo sapiens, UniProt O14757).
T1 construct: a solution containing 1 nM of CHK1 (kinase domain)
T1 sequence (O14757 9-265 limits assumed): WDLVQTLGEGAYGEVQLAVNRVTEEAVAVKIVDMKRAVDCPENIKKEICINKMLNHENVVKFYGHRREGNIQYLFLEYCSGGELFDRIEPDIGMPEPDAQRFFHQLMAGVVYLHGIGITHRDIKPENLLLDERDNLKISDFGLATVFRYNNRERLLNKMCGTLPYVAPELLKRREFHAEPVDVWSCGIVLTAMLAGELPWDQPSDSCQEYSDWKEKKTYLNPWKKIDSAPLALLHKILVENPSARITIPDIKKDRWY
Briefly: CHK1 Ki determination, spectrophotometric coupled (pyruvate kinase/lactate dehydrogenase) assay. The format is biochemical. Particulars: CHK-1 kinase domain; for Ki: 150 uM ATP, 125 uM Syntide 2; for percent inhibition (where no Ki data is available): inhibitor concentration not given. The method, then: After 15 min pre-incubation, the enzymatic reaction was initiated by the simultaneous addition of Syntide 2 peptide (125 uM, final concentration) and ATP (150 uM, final concentration). The kinase-catalyzed production of ADP from ATP that accompanied phosphoryl transfer to the substrate Syntide 2 was coupled to the oxidation of NADH through the activities of pyruvate kinase and lactate dehydrogenase. NADH conversion to NAD^+ was monitored by the decrease in absorbance at 340 nm (ε=6.22 cm^−1 mM^−1) using a microplate reader from Molecular Devices Spectormax Plus (Sunnyvale, Calif.) or BMG LABTECH Inc (Offenburg, Germany).
The inhibition of CHK1 was analyzed by fitting the data to the following equation to determine Kiapp:
[formula] where [E]o and [I]o are the active enzyme and inhibitor concentration, respectively; Ki is the inhibition binding constant and Km the Michaelis-Menten constant for ATP; Vi and Vo are the rates of substrate oxidation in the presence of and in the absence of inhibitor, respectively. EC50 Determination (Cellular Assay)
as §1

These results are taken from patent US8518952B2, “6 substituted 2-heterocyclylamino pyrazine compounds as CHK-1 inhibitors” (Pfizer Inc., priority 2008, dated 2013).

The structures appear in SMILES notation. Where two headings read alike, the source gives them in different places. Where only a bound is given, the exact number is not on record here.

`c1cn2c(-c3cncc(N[C@@H]4CCCNC4)n3)cnc2s1` [Example 41, 6-Imidazo[2,1-b][1,3]thiazol-5-yl-N-[(3R)-piperidin-3-yl]pyrazin-2-amine]: the EC50 (in general, the concentration that produces a half-maximal response) in experiment [1] (Homo sapiens, HeLa) stood at 25.8 nM. Moreover, the affinity in experiment [2], expressed as Ki, was 7 nM.

Regarding `C[C@@H]1CNC[C@@H]1Nc1cncc(-c2cnn3cc(Cl)ccc23)n1` [Example 116, 6-(6-chloropyrazolo[1,5-a]pyridin-3-yl)-N-[(3R,4R)-4-methylpyrrolidin-3-yl]pyrazin-2-amine], the EC50 in experiment [1] (Homo sapiens, HeLa) turned out to be 20.3 nM. Moreover, in experiment [2], the affinity corresponds to a Ki of 1.97 nM. For the compound `C[C@H]1NCCC[C@@H]1Nc1cncc(-c2cnc3ccc(F)cn23)n1` [Example 172, 6-(6-fluoroimidazo[1,2-a]pyridin-3-yl)-N-[(2R,3S)-2-methylpiperidin-3-yl]pyrazin-2-amine], in experiment [1] (Homo sapiens, HeLa), the EC50 is ≥ 10000 nM. In experiment [2], the affinity corresponds to a Ki of 178 nM. Regarding `Fc1ccc2ncc(-c3cncc(N[C@H]4CNC[C@@H]4F)n3)n2c1` [Example 92, 6-(6-fluoroimidazo[1,2-a]pyridin-3-yl)-N-[(3S,4S)-4-fluoropyrrolidin-3-yl]pyrazin-2-amine], the concentration for a half-maximal effect (EC50) in experiment [1] (Homo sapiens, HeLa) is ≥ 10000 nM. The Ki (as a rule, the dissociation constant of the complex between target and ligand, obtained from inhibition or displacement) in experiment [2] is 87.5 nM. On to `CC(C)c1cn2c(-c3cncc(N[C@H]4CNC[C@H]4CF)n3)cnc2s1` [Example 184, N-[(3R,4R)-4-(fluoromethyl)pyrrolidin-3-yl]-6-[2-(propan-2-yl)imidazo[2,1-b][1,3]thiazol-5-yl]pyrazin-2-amine], for which the concentration for a half-maximal effect (EC50) in experiment [1] (Homo sapiens, HeLa) stood at 66.4 nM. The “percent inhibition (where no Ki data is available)” value in experiment [2] turned out to be 109%^. With `CCOC[C@@H]1C[C@@H](Nc2cncc(-c3cnc4ccccn34)n2)CN1` [Example 193, N-[(3R,5S)-5-(ethoxymethyl)pyrrolidin-3-yl]-6-(imidazo[1,2-a]pyridin-3-yl)pyrazin-2-amine], the EC50 in experiment [1] (Homo sapiens, HeLa) is 102 nM. This compound had an inhibitory constant (Ki) in experiment [2] of 26.5 nM.

`F[C@H]1CNC[C@@H]1Nc1cncc(-c2cnc3cc(Cl)ccn23)n1` [Example 65, 6-(7-chloroimidazo[1,2-a]pyridin-3-yl)-N-[(3S,4S)-4-fluoropyrrolidin-3-yl]pyrazin-2-amine]: the EC50 in experiment [1] (Homo sapiens, HeLa) was 501 nM. The affinity in experiment [2], expressed as Ki, was 33 nM.

Regarding `CCc1cn2c(-c3cncc(N[C@@H]4CC[C@H](C)NC4)n3)cnc2s1` [Example 103, 6-(2-ethylimidazo[2,1-b][1,3]thiazol-5-yl)-N-[(3R,6S)-6-methylpiperidin-3-yl]pyrazin-2-amine], the half-maximal effective concentration (EC50) in experiment [1] (Homo sapiens, HeLa) came to 69.6 nM. Besides, the Ki in experiment [2] stood at 26.5 nM. In the same order, the values of `CCc1cn2c(-c3cncc(N[C@@H]4C[C@@H]5CN[C@H]4C5)n3)cnc2s1` [Example 128, (1S,4R,6R)-N-[6-(2-ethylimidazo[2,1-b][1,3]thiazol-5-yl)pyrazin-2-yl]-2-azabicyclo[2.2.1]heptan-6-amine] are 172 nM and 1.79 nM. Consider `COC[C@@H]1C[C@@H](Nc2cncc(-c3cnc4ccc(Cl)cn34)n2)CN1` [Example 246, 6-(6-chloroimidazo[1,2-a]pyridin-3-yl)-N-[(3R,5S)-5-(methoxymethyl)pyrrolidin-3-yl]pyrazin-2-amine], for which the EC50 in experiment [1] (Homo sapiens, HeLa) was found to be 229 nM. In experiment [2], this compound showed a Ki of 35.3 nM. On to `C[C@H]1NCCC[C@H]1Nc1cncc(-c2cnc3ccccn23)n1` [Example 138, 6-imidazo[1,2-a]pyridin-3-yl-N-[(2R,3R)-2-methylpiperidin-3-yl]pyrazin-2-amine], for which, in experiment [1], the concentration for a half-maximal effect (EC50) came out at 188 nM.

In the case of `COc1ccc2c(c1)ncn2-c1cncc(N[C@@H]2CCNC2)n1` [Example 218, 6-(5-methoxy-1H-benzimidazol-1-yl)-N-[(3R)-pyrrolidin-3-yl]pyrazin-2-amine], in experiment [1] (Homo sapiens, HeLa), the EC50 was ≥ 10000 nM. In experiment [2], the Ki was determined as 5.12 nM. In the case of `CCC(COC)Oc1ccn2c(-c3cncc(N[C@@H]4CCCNC4)n3)cnc2c1` (stereo partly drawn) [Example 122, 6-{7-[1-(methoxymethyl)propoxy]imidazo[1,2-a]pyridin-3-yl}-N-[(3R)-piperidin-3-yl]pyrazin-2-amine], the EC50 in experiment [1] (Homo sapiens, HeLa) amounted to 1060 nM. Moreover, the Ki in experiment [2] was 11 nM. In the same order, the values of `CC1(Nc2cncc(-c3cnc4ccccn34)n2)CCNC1` (stereo not drawn) [Example 99, 6-imidazo[1,2-a]pyridin-3-yl-N-(3-methylpyrrolidin-3-yl)pyrazin-2-amine] are ≥ 10000 nM and 28.4 nM. The matching figures for `CC(C)c1ccc2ncc(-c3cncc(N[C@@H]4CCCNC4)n3)n2c1` [Example 43, 6-(6-Isopropylimidazo[1,2-a]pyridin-3-yl)-N-[(3R)-piperidin-3-yl]pyrazin-2-amine]: 64.6 nM and 6.69 nM. `FC1(F)CCNC[C@H]1Nc1cncc(-c2cnc3ccccn23)n1` [Example 248, N-[(3R)-4,4-difluoropiperidin-3-yl]-6-(imidazo[1,2-a]pyridin-3-yl)pyrazin-2-amine]: in experiment [1] (Homo sapiens, HeLa), the EC50 is ≥ 10000 nM. For the same compound, the affinity in experiment [2] corresponds to a Ki of 45.3 nM. As to `CC(C)[C@@H]1CNC[C@@H]1Nc1cncc(-c2cnc3ccccn23)n1` [Example 194, 6-(imidazo[1,2-a]pyridin-3-yl)-N-[(3R,4R)-4-(propan-2-yl)pyrrolidin-3-yl]pyrazin-2-amine], in experiment [1] (Homo sapiens, HeLa), the EC50 came to 7.76 nM. The Ki in experiment [2] turned out to be 13.6 nM. Regarding `CC(C)Oc1ccc2c(c1)ncn2-c1cncc(N[C@@H]2CCNC2)n1` [Example 222, 6-[5-(propan-2-yloxy)-1H-benzimidazol-1-yl]-N-[(3R)-pyrrolidin-3-yl]pyrazin-2-amine], in experiment [1] (Homo sapiens, HeLa), the EC50 is ≥ 10000 nM. Further, the “percent inhibition (where no Ki data is available)” value in experiment [2] came out at 42.5%^. In the case of `FC(F)[C@@H]1C[C@@H](Nc2cncc(-c3cnc4ccccn34)n2)CN1` [Example 25, N-[(3R,5S)-5-(difluoromethyl)pyrrolidin-3-yl]-6-(imidazo[1,2-a]pyridin-3-yl)pyrazin-2-amine], the EC50 in experiment [1] (Homo sapiens, HeLa) was ≥ 10000 nM. In experiment [2], this compound had a Ki of 70.2 nM. In the same order, the values of `c1cn2c(-c3cncc(N[C@@H]4C[C@@H]5CN[C@H]4C5)n3)cnc2cn1` [Example 147, (1S,4R,6R)-N-(6-imidazo[1,2-a]pyrazin-3-ylpyrazin-2-yl)-2-azabicyclo[2.2.1]heptan-6-amine] are 295 nM and 12.9 nM.

For `CCc1cn2c(-c3cncc(N[C@@H]4CCCN[C@@H]4C)n3)cnc2s1` [Example 108, 6-(2-ethylimidazo[2,1-b][1,3]thiazol-5-yl)-N-[(2R,3R)-2-methylpiperidin-3-yl]pyrazin-2-amine], the half-maximal effective concentration (EC50) in experiment [1] turned out to be 47 nM. In addition, in experiment [2], the Ki came to 10.2 nM. For the compound `CCc1cn2c(-c3cncc(N[C@@H]4CCCN[C@H]4C)n3)cnc2s1` [Example 109, 6-(2-ethylimidazo[2,1-b][1,3]thiazol-5-yl)-N-[(2S,3R)-2-methylpiperidin-3-yl]pyrazin-2-amine], the EC50 in experiment [1] came to 190 nM. This compound also had a Ki in experiment [2] of 28.4 nM. As for `Cc1cn2c(-c3cncc(N[C@@H]4C[C@@H]5CN[C@H]4C5)n3)cnc2s1` [Example 125, (1S,4R,6R)-N-[6-(2-methylimidazo[2,1-b][1,3]thiazol-5-yl)pyrazin-2-yl]-2-azabicyclo[2.2.1]heptan-6-amine], the EC50 in experiment [1] worked out at 35 nM. The same measure, in the same setting: with `Cc1cn2c(-c3cncc(N[C@@H]4C[C@@H]5CN[C@H]4C5)n3)cnc2s1` [Example 85, (1S,4R,6R)-2-Aza-bicyclo[2.2.1]hept-6-yl-[6-(2-methyl-imidazo[2,1-b]thiazol-5-yl)-pyrazin-2-yl]-amine] the figure was 795 nM.
